Assay results: US11891601B2, “Method to enhance the transcription regulation of SUPT4H on genes containing repetitive nucleotide sequences” (National Yang-Ming University, priority 2018, dated 2024)

How the values were obtained:
[1] = test system: HD-Drosophila expressing mutant HTT97Q; assay: Rough eye phenotype in HD-Drosophila (Gmr-HTT97Q); type: in vivo, Drosophila melanogaster; settings: 10 μM 6CR plus 100 μM Tropolone in media
Method: The Gmr-ga14-UAS-HTT97Q/cyo line expressing HTT97Q under the control of Gmr-gal4 in compound eyes was provided by MT SU (National Taiwan Normal University, Taipei, Taiwan). Fly stock was maintained and crossed at 25° C. on a standard cornmeal yeast agar medium.
In each compound treatment experiment, 15 Gmr-ga14-UAS-HTT97Q/cyo male flies were crossed with 15 Gmr-ga14-UAS-HTT-97Q/cyo females in a vial containing 10 mL of media supplemented with the testing compound at a final concentration of 10 μM 6CR (Sigma) or/and 100 μM Tropolone (Sigma). 6-chloropurine riboside (6CR) is a chemical reagent that inhibits the activity of SUPT4H by preventing the complex formation of SUPT4H/SUPT5H (Patent No.: US2018/0064744A1). Parent flies were removed after 7 days, and 4-day-old progenies carrying one Gmr-ga14-UAS-HTT97Q allele were collected for eye morphology examination. […] In each treatment group, flies were analyzed and normalized with control flies. […]
Please refer to FIG. 8. […] After parent fly removal, the 4-day-old progenies carrying one Gmr-ga14-UAS-HTT97Q allele were collected and analyzed for eye morphology. […] 4-day-old progenies as described above were collected and analyzed the levels of mutant HTT by Western blotting. α-tubulin was included and served as a loading control. […]

[2] = test system: human RNases H; settings: Budihas et al, 2005; read-out: IC50, inhibition of enzymatic activity of human RNases H; cited from earlier work

For `O=c1cccccc1O` [Tropolone], the “rescue effect of rough eye phenotype by 6CR with co-treatment of Tropolone” value [1] is given as “greatly improved” and the IC50 [2] is given as 5.7 µM.
